Laboratory results taken from US12599676B2, “Cytotoxic imidazo[1,2-A]pyridine compounds and their use in therapy” (MyricX Pharma Limited, priority 2022, dated 2026).

Assays:
[1] = test system: LYXFDLBC2835 (patient-derived xenograft lymphoma); assay: Cell cytotoxicity CellTiter-Glo, LYXFDLBC2835; assay type: cell-based
Experimental: (§1) Cells were seeded in 96-well microplates and treated with compounds or cisplatin (as a positive control) at 9 increasing concentrations in technical triplicate. […] On day 1, 90 μL of various cell suspensions with the number of cells ranging from 5000-8000 cells/well were seeded into wells of a 96-well plate (Corning). The number of cells to be seeded was previously determined. • 2. All 96-wells plates with cells were placed in an incubator overnight at 37° C. with 5% CO2. • 3. On day 2, cells were observed under a microscope ensuring the cells treated with vehicle control were in good condition. • 4. A dilution series of the test compounds and cisplatin were prepared at 10× the final concentrations required. 10 μL/well of 10× compound solution was added to the corresponding plates. The final volume was 100 μL/well for all the plates. Final DMSO concentration was 0.1%. • 5. On day 5 (after 72 hours of incubation), 50 μL of CTG reagent was added to each well. • 6. Contents were mixed for 5 minutes on an orbital shaker to facilitate cell lysis. • 7. The plate was allowed to incubate at room temperature for 10 minutes to stabilize luminescent signals.
(§2) The effects of Comparator Compound 1 and certain Example compounds on the viability of various cell lines (LYXFDLBC2835, LYXFDLBC4009 and LYXFDLBC411 (patient-derived xenograft lymphoma), HT1080 (human fibrosarcoma), CA46 (human B cell lymphoma), RKO (human colon carcinoma), NCI-H1703 (human lung squamous cell carcinoma), MX-1 (human breast carcinoma), DU4475 (human breast carcinoma), LU2511 (human lung large cell undifferentiated carcinoma), LU0884 (human lung squamous cell carcinoma)), Panc-1 (human pancreatic carcinoma), MCF-7 (human breast cancer), SW480 (human colon adenocarcinoma) and HCC1806 (human breast ductal carcinoma) were performed using the standard CellTiter-Glo assay (CTG, Promega) as described in Biological Example 2. Compounds which show efficacy in these assays are expected to be useful as agents for treating or preventing hyperproliferative disorders such as cancer.

[2] = test system: LYXFDLBC4113 (patient-derived xenograft lymphoma); assay: Cell cytotoxicity CellTiter-Glo, LYXFDLBC4113; assay type: cell-based
Experimental: as §1, §2

[3] = test system: LYXFDLBC4009 (patient-derived xenograft lymphoma); assay: Cell cytotoxicity CellTiter-Glo, LYXFDLBC4009; assay type: cell-based
Experimental: as §1, §2

Caco-2 cells = assay: Caco-2 cell permeability assay; assay type: in vitro ADME; conditions: apical to basal Papp, 2 μM, pH 7.4, 2.5 h
Experimental: Certain Example compounds and Comparative Example 1 were tested for their apical to basal (AB) and basal to apical (BA) permeability in Caco-2 cells.
Cell Culture: Caco-2 cells were grown for 10 days in 96-well plates in HBSS buffer containing 10 mM HEPES. Both the apical and basal pH was buffered at pH 7.4. The apical/basal volumes were 75 μl and 250 μl respectively. The incubation time was 2.5 h at 37° C. (without shaking) under 5% CO2 & 95% relative humidity.
Cell Seeding: Cells were seeded at a density of 18750 cells/well (membrane area=0.0804 cm^2) in a 96 well plate.
AB Assay: 75 μl of cell suspension was added at a density 2.5×10^5 cells/ml to the apical wells. 40 ml media was added to the feeder tray. The plates were placed in the incubator (37° C., 5% CO2 and controlled humidity). The Caco-2 cells were grown for 10 days with a media change on every alternate day.
BA Assay: 25 μl of cell suspension was added at a density of 7.5×10^5 cells/ml to the bottom side (keeping the plate upside down) of apical wells. The plate (upside down position) was placed in the incubator (37° C., 5% CO2 and 95% Relative humidity) for 2 h. The plate was turned right side up. 75 μl media was added to the apical wells and 40 ml media to the feeder tray.
Permeablity Assay: The apical and basal wells were washed with buffer (pH 7.4) and 250 μl buffer was added to the wells of the basal plate. 75 μl of compound solution (2 μM, dissolved in water with 1% DMSO) was transferred to the apical wells (n=2). The apical plate was placed onto the basal plate. The lid was placed on to prevent evaporation. The assembly was incubated at 37° C. for 2.5 h (without shaking) under 5% CO2 and 95% relative humidity. After incubation the apical plate was separated from the basal plate. Aliquots were taken out from the acceptor and donor wells, diluted and quantified using LC-MS/MS along with initial donor samples.
Membrane Integrity Test: Solution in the apical wells was discarded by inverting the plate and soaking onto tissue paper. 250 μl buffer (pH 7.4) was added to each well of basal plate and 75 μl of Lucifer Yellow (LY; 0.1 mg/ml) in buffer (pH 7.4) to the wells of apical plate. The apical plate was placed onto the basal plate and the lid used to prevent evaporation. The assembly was incubated at 37° C. for 1 h (without shaking) under 5% CO2 and 95% relative humidity. The apical plate was separated from the basal plate. Fluorescence (Ex: 432 nm, Em: 530 nm) of aliquots (100 ul) was measured from basal wells. Fluorescence of 100 μl buffer (pH 7.4) and 100 μl LY(0.1 mg/ml) was also measured. Wells having more than 1% fluorescence intensity with respect to 0.1 mg/ml LY were considered non-integrated membrane. Such wells, if any, were not considered for permeability calculation.
Calculation: Drug was detected and quantified by LC-MS/MS. Data generated took the form of an apparent permeability (Papp) value. Papp=[Va/(AreaxTime)]×(LC-MS Area of Acceptor sample×Sample dilution factor/LC-MS Area of Initial Donor). Va=Volume of Acceptor Well (in ml)=0.25, Vd=Volume of Donor Well (in ml)=0.075, Area=Surface area of the membrane (cm2)=0.0804, Time=Time of incubation (sec)=9000 Results: The results of the assay are shown in Table 3 below.

[4] = test system: LU2511 (human lung large cell undifferentiated carcinoma); assay: Cell cytotoxicity CellTiter-Glo, LU2511; assay type: cell-based
Experimental: as §1, with “signals. […]” for “signals.”

[5] = test system: SU-DHL-10 cell line (human B cell lymphoma); assay: Cell cytotoxicity in SU-DHL-10 cell line (CellTiter-Glo); assay type: cell-based; conditions: Homo sapiens, SU-DHL10, 72 h, 72 h treatment, CTG
Summary of the method: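 Cells seeded at 5000-8000/well, dosed next day with 9 concentrations in triplicate (DMSO 0.1% final) and incubated 72 h at 37° C, 5% CO2. Viability by CellTiter-Glo luminescence normalised to vehicle (100%) and medium blank; IC50 from sigmoidal nonlinear regression.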

[6] = test system: LU0884 (human lung squamous cell carcinoma); assay: Cell cytotoxicity CellTiter-Glo, LU0884; assay type: cell-based
Experimental: as §1, with “signals. […]” for “signals.”

[7] = test system: HT1080 (human fibrosarcoma); assay: Cell cytotoxicity CellTiter-Glo, HT1080; assay type: cell-based; conditions: HT-1080
Experimental: as §1, with “signals. […]” for “signals.”

Caco-2 A-B (Caco-2 cells) [×10⁻⁶ cm/s] | SMILES | IC50 [1] [nM] | IC50 [2] [nM] | IC50 [3] [nM] | IC50 [4] [nM] | IC50 [5] [nM] | IC50 [6] [nM] | IC50 [7] [nM]
0.95 | CNCc1cnc2ccc(-c3ccc(F)c(F)c3OCCc3c(C(O)C(C)(C)C)nn(C)c3C)cn12 (single isomer, unassigned) [Example 12, 1-(4-(2-(2,3-difluoro-6-(3-((methylamino)methyl)imidazo[1,2-a]pyridin-6-yl)phenoxy)ethyl)-1,5-dimethyl-1H-pyrazol-3-yl)-2,2-dimethylpropan-1-ol] | 10 | 3 | 3 | 0.07 | 0.6 | 3 | 
0.0 | Cc1c(CCOc2cc(Cl)ccc2-c2ccc3ncc(CCN)n3c2)c(C(=O)N(C)C)nn1C [Comparator Compound 1, 4-(2-{2-[3-(2-aminoethyl)imidazo[1,2-a]pyridin-6-yl]-5-chlorophenoxy}ethyl)-N,N,1,5-tetramethyl-1H-pyrazole-3-carboxamide, reference compound] | 130 | 890 | 1540 | 9 | 5 | 44 | 6.4
